Data reported in patent US8637521B2, “Substituted piperazin-2,5-diones and their use as multifunctional bioactive compounds” (priority 2006, dated 2014).
Read-outs that look alike come from different tables or passages of the source. Square brackets hold non-standard residues; d marks the D form. Peptide text beside a SMILES is read from it. * marks the point of attachment. X1 = O=C(O)CC[C@@H]1NC(=O)[C@H](CCCCN*)NC1=O

Key:
[1] = molecular target: μ-receptor (isolated guinea pig ileum, GPI) (Cavia porcellus, UniProt P97266); test: Peripheral opioid activity: inhibition of electrically-induced contractions of isolated guinea pig ileum (GPI); details: for EC50: concentration reducing contraction amplitude by 50%, 5 replications; for Value of pD2 (M ± m): negative logarithm of EC50
Description: The segment of GPI about 1 cm long was placed into a 10-ml organ bath containing Krebs solution at 34° C. […] Resting tension of the organ was 1 g. The segment of GPI was stimulated by single pulses duration 1 ms with 0.1 Hz at 80 V. The solution with isolated organs was constantly aerated. The contractions were recorded in an isometrical mode by a sensor K 30 (Hugo Sachs Elektronic KG) with paper register Rikadenki-series (Japan).
The substances tested were dissolved in distilled water and added cumulatively to the organ bath at a volume of 5 to 30 mcl. Each subsequent substance was added after the isolated organs were washed 3 or 4 times for 12-15 min. On the basis of the data obtained, dose-effects curves were plotted and the activity of substances was expressed by IC50 or pD2. The pD2 index was equal to a negative decimal logarithm of the substance concentration causing a 50% of the maximal effect.
New dermorphin analogues were tested in the standard model of Guinea pig ileum binding test.
For confirmation of opioid activity, the specific antagonist naloxson was used in concentration of 10^−5M. Each molecule was tested in 5 independent replications and relative activity was calculated as negative logarithm of EC50 (pD2).

mice F1(CBAxC57D16) = test: Analgesic activity, tail flick test, water 48° C., intraperitoneal; type: in vivo; details: Table 10; for Initial sensitivity level: before injection
Description: Two hundred and twenty mice F1(CBAxC57D16) first generation hybrids were used for testing of analgesic activity using the “tail flick” test. The water temperature was at 48° C. The maximal effect was for the period of 30 seconds. All peptides were injected intraperitoneally in the doses of 5, 10 or 20 mg/kg. Analgesic effect was estimated in the time interval of 15 to 120 min after peptide injection. Student's t-criterion was used for statistical calculations of the results. Statistical significance were at the level of p≦0.05.

BALB/c male mice = test: Antinociceptive activity, tail flick test with heat radiation, intragastral or intraperitoneal; type: in vivo; details: for Effect duration: 15 min, cut-off 6 sec
Description: For estimation of oral activity of novel cyclopeptides of the present invention, the “tail flick” test was used. The results were compared with those obtained using intraperitoneal administration.
Antinociceptive activity of the peptides of the present invention was assessed in experiments on BALB/c male mice weighing 22 to 24 g. The peptides were dissolved in saline and administered intraperitoneally or intragastrally.
The “Tail flick” test (D'Amour, F. E. et al. “A Method for Determining Loss of Pain Sensation”, J. Pharmacol. Exp. Ther., Vol. 72, Pages 74 to 79, 1941) was performed on an analgesimeter type 812, Hugo Sachs Electronick KG. Antinociceptive activity was defined as the absence of tail flick response on stimulation with a focused bundle of heat radiation with 6 sec at baseline response of 2.0-3.0 seconds.
Statistical treatment of the results was carried out by the Student's paired t-test.

[2] = tested on: CFU-S population in the bone marrow; test: Spleen colony formation (CFU-S) by bone marrow cells of peptide-treated intact donor mice; type: in vivo, (CBA×C57 B1) F1 mice; details: for Colony count CFU-8 - S per 10^5 cells M ± M: control 11.2 ± 0.4; for Colony count CFU-8 - S per 10^5 cells M ± m: control 9.9 ± 0.7
Description: The effect of tested substances on intact bone marrow was studied in vivo. […] Two days after administration of preparation, the mice were killed. Bone marrow suspension was prepared and injected intravenously to lethally irradiated mice. The colony forming activity was evaluated at day 8. Test animals were (CBA×C57 B1) F1 mice (30 mice per trial, average from 3 tests).

[3] = Table 11, oral 50 mg/kg group, before administration
[4] = Table 2, donor treated i/p, colonies day 8
[5] = Table 3, 0.2 microgram per mouse i/p
[6] = Table 3, 0.2 microgram per mouse per os
[7] = Table 3, 2.0 microgram per mouse per os
[8] = Table 3, 20.0 microgram per mouse per os
[9] = Table 3, 200.0 microgram per mouse per os

Chain of μ-receptor (isolated guinea pig ileum, GPI) (P97266 whole entry): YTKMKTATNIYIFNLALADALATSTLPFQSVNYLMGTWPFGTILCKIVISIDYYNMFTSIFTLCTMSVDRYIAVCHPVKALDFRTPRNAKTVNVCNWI

Compound: C[C@@H](NC(=O)[C@H](Cc1ccc(O)cc1)NC(=O)[C@@H](N)CCCNC(=N)N)C(=O)N[C@@H](Cc1ccccc1)C(=O)NCC(=O)O [Compound 52, Arg-Tyr-D-Ala-Phe-Gly-OH] (H-RY[dA]FG-OH; N-terminus assumed)
- EC50 ([1]; read-out: Median EC50): 3000 nM
- Value of pD2 (M ± m) [1]: 5.50 ± 0.07

Compound: Cyclo-[L-Lys(H-Tyr-D-Ala-Phe-D-Ala-Tyr-Pro-Ser)-L-Glu(L-Trp-NH2)]
- Initial sensitivity level (mice F1(CBAxC57D16); 10 mg/kg group): 3.2 ± 0.3 s
- Effect duration (mice F1(CBAxC57D16); 10 mg/kg i.p., 15 min): 11.6 ± 1.7 s
- Effect duration (mice F1(CBAxC57D16); 10 mg/kg i.p., 30 min): 15.5 ± 1.6 s
- Effect duration (mice F1(CBAxC57D16); 10 mg/kg i.p., 45 min): 15.7 ± 1.2 s
- Effect duration (mice F1(CBAxC57D16); 10 mg/kg i.p., 60 min): 13.0 ± 1.5 s
- Effect duration (mice F1(CBAxC57D16); 10 mg/kg i.p., 90 min): 9.9 ± 1.5 s
- Effect duration (mice F1(CBAxC57D16); 10 mg/kg i.p., 120 min): 6.8 ± 0.5 s
- Initial sensitivity level (mice F1(CBAxC57D16); 20 mg/kg group): 3.0 ± 0.2 s
- Effect duration (mice F1(CBAxC57D16); 20 mg/kg i.p., 15 min): 1.4 ± 1.6 s
- Effect duration (mice F1(CBAxC57D16); 20 mg/kg i.p., 30 min): 18.1 ± 2.3 s
- Effect duration (mice F1(CBAxC57D16); 20 mg/kg i.p., 45 min): 16.8 ± 2.2 s
- Effect duration (mice F1(CBAxC57D16); 20 mg/kg i.p., 60 min): 12.7 ± 1.8 s
- Effect duration (mice F1(CBAxC57D16); 20 mg/kg i.p., 90 min): 11.7 ± 1.2 s
- Effect duration (mice F1(CBAxC57D16); 20 mg/kg i.p., 120 min): 6.3 ± 0.6 s
- Initial sensitivity level, mean (BALB/c male mice; [3]): 2.7 ± 0.1 s
- Initial sensitivity level, mean (BALB/c male mice; Table 12, intraperitoneal 10 mg/kg group, before injection): 2.1 ± 0.1 s
- Effect duration (BALB/c male mice; Table 12, intraperitoneal 10 mg/kg): 3.9 ± 0.8 s

Compound: CC(C)C[C@H](NC(=O)[C@H](Cc1ccccc1)NC(=O)CNC(=O)[C@@H](C)NC(=O)[C@@H](N)Cc1ccc(O)cc1)C(=O)N[C@@H](CCCNC(=N)N)C(=O)O [Compound 56, H-Tyr-D-Ala-Gly-Phe-Leu-Arg-OH] (H-Y[dA]GFLR-OH)
- Value of pD2 (M ± m) [1]: 7.53 ± 0.22
- EC50 ([1]; read-out: Median EC50 in M): 50 nM

Compound: C[C@@H](NC(=O)[C@H](Cc1ccccc1)NC(=O)[C@@H](C)NC(=O)[C@@H](N)Cc1ccc(O)cc1)C(=O)N[C@@H](Cc1ccc(O)cc1)C(=O)N1CCC[C@H]1C(=O)N[C@@H](CO)C(=O)NCCCC[C@@H]1NC(=O)[C@H](CCC(=O)N[C@@H](Cc2c[nH]c3ccccc23)C(=O)O)NC1=O [Compound 47, Cyclo-[L-Lys(H-Tyr-D-Ala-Phe-D-Ala-Tyr-Pro-Ser)-L-Glu(L-Trp-OH)]]
- Value of pD2 (M ± m) [1]: 7.52 ± 0.07
- EC50 ([1]; read-out: Median EC50 in M): 33 nM

Compound: COc1cccc(C2(O)CCCCC2CN(C)C)c1 (centres unmarked) [Tramadol]
- Initial sensitivity level, mean (BALB/c male mice; [3]): 2.6 ± 0.1 s
- Effect duration (BALB/c male mice; Table 11, oral 50 mg/kg): 2.6 ± 0.1 s

Compound: C[C@@H](NC(=O)[C@H](Cc1ccccc1)NC(=O)[C@@H](C)NC(=O)[C@@H](N)Cc1ccc(O)cc1)C(=O)N[C@@H](Cc1ccc(O)cc1)C(=O)N1CCC[C@H]1C(=O)N[C@@H](CO)C(=O)NCCCC[C@@H]1NC(=O)[C@H](CCC(=O)N[C@@H](Cc2c[nH]c3ccccc23)C(N)=O)NC1=O [Compound 46, Cyclo-[L-Lys(H-Tyr-D-Ala-Phe-D-Ala-Tyr-Pro-Ser)-L-Glu(L-Trp-NH2)]]
- Value of pD2 (M ± m) [1]: 7.96 ± 0.02
- EC50 ([1]; read-out: Median EC50 in M): 11 nM

Compound: γDGlu-DTrp [Thymodepressin, reference compound]
- % suppression ([2]; Table 2, donor treated i/p): 55%
- Colony count CFU-8 - S per 10^5 cells M ± M [2, 4]: 6.3 ± 0.6 per 10^5 cells
- % suppression [2, 5]: 51%
- Colony count CFU-8 - S per 10^5 cells M ± m [2, 5]: 5.7 ± 0.4 per 10^5 cells
- % suppression [2, 6]: 0%
- Colony count CFU-8 - S per 10^5 cells M ± m [2, 6]: 10.2 ± 0.3 per 10^5 cells
- % suppression [2, 7]: 33%
- Colony count CFU-8 - S per 10^5 cells M ± m [2, 7]: 8.0 ± 0.5 per 10^5 cells
- % suppression [2, 8]: 41%
- Colony count CFU-8 - S per 10^5 cells M ± m [2, 8]: 6.4 ± 0.5 per 10^5 cells
- % suppression [2, 9]: 52%
- Colony count CFU-8 - S per 10^5 cells M ± m [2, 9]: 5.1 ± 0.2 per 10^5 cells
- effect on CFU-S population in the bone marrow of intact mice ([2]; text statement on Table 2): decreased the CFU-S population in the bone marrow

Compound: C[C@H]1NC(=O)[C@@H](CCC(=O)N[C@H](Cc2c[nH]c3ccccc23)C(=O)[O-])NC1=O.[Na+] [cyclo-DAla-DGlu-(DTrp-ONa)]
- % suppression ([2]; Table 2, donor treated i/p): 70%
- Colony count CFU-8 - S per 10^5 cells M ± M [2, 4]: 5.0 ± 0.3 per 10^5 cells
- % suppression ([2]; Table 2, donor treated per os): 58%
- Colony count CFU-8 - S per 10^5 cells M ± M ([2]; Table 2, donor treated per os): 6.0 ± 0.7 per 10^5 cells
- % suppression [2, 6]: 59%
- Colony count CFU-8 - S per 10^5 cells M ± m [2, 6]: 5.3 ± 0.6 per 10^5 cells

Compound: COC(=O)[C@H](Cc1c[nH]c2ccccc12)NC(=O)CC[C@@H]1NC(=O)[C@H](CCCCNC(=O)[C@@H](C)NC(=O)[C@H](Cc2ccccc2)NC(=O)[C@@H](C)NC(=O)[C@@H](N)Cc2ccc(O)cc2)NC1=O [Compound 45, Cyclo-[L-Lys(H-Tyr-D-Ala-Phe-D-Ala)-L-Glu(L-Trp-OMe)]]
- Value of pD2 (M ± m) [1]: 5.68 ± 0.09
- EC50 ([1]; read-out: Median EC50 in M): 2000 nM

Compound: C[C@@H](NC(=O)[C@@H](N)Cc1ccc(O)cc1)C(=O)N[C@@H](Cc1ccccc1)C(=O)NCC(=O)N[C@@H](Cc1ccc(O)cc1)C(=O)N1CCC[C@H]1C(=O)N[C@@H](CO)C(N)=O [Compound 48, H-Tyr-D-Ala-Phe-Gly-Tyr-Pro-Ser-NH2]
- Value of pD2 (M ± m) [1]: 8.56 ± 0.12
- EC50 ([1]; read-out: Median EC50 in M): 2.5 nM

Compound: CC1NC(=O)C(CCC(=O)NC(Cc2c[nH]c3ccccc23)C(=O)[O-])NC1=O.[Na+] (centres unmarked) [cyclo-LAla-LGlu-(DTrp-ONa)]
- % suppression ([2]; Table 2, donor treated i/p): 20%
- Colony count CFU-8 - S per 10^5 cells M ± M [2, 4]: 8.8 ± 0.2 per 10^5 cells

Compound: O=C(CCC1NC(=O)C(Cc2ccc(O)cc2)NC1=O)NC(Cc1c[nH]c2ccccc12)C(=O)O (centres unmarked) [cyclo-DTyr-DGlu-(DTrp-OH)]
- % suppression ([2]; Table 2, donor treated per os): 44%
- Colony count CFU-8 - S per 10^5 cells M ± M ([2]; Table 2, donor treated per os): 6.3 ± 0.9 per 10^5 cells

Compound: C[C@H]1NC(=O)[C@@H](CC(=O)N[C@H](Cc2c[nH]c3ccccc23)C(=O)O)NC1=O [Compound 13, Cyclo-D-Ala-D-Asp-(D-Trp-OH)]
- % suppression ([2]; Table 2, donor treated per os): 26.5%
- Colony count CFU-8 - S per 10^5 cells M ± M ([2]; Table 2, donor treated per os): 9.0 ± 0.2 per 10^5 cells

Compound: C[C@@H](NC(=O)[C@H](Cc1ccccc1)NC(=O)[C@@H](C)NC(=O)[C@@H](N)Cc1ccc(O)cc1)C(=O)NCCCC[C@@H]1NC(=O)[C@H](CCC(=O)O)NC1=O [Compound 44, Cyclo-[L-Lys(H-Tyr-D-Ala-Phe-D-Ala)-L-Glu(OH)]] (H-Y[dA]F[dA]-X1)
- Value of pD2 (M ± m) [1]: 6.15 ± 0.10
- EC50 ([1]; read-out: Median EC50 in M): 570 nM

Compound: CC1NC(=O)C(CC(=O)NC(Cc2c[nH]c3ccccc23)C(=O)[O-])NC1=O.[Na+] (centres unmarked) [cyclo-DAla-DAsp-(DTrp-ONa)]
- % suppression [2, 6]: 55%
- Colony count CFU-8 - S per 10^5 cells M ± m [2, 6]: 6.8 ± 0.8 per 10^5 cells

Compound: C[C@@H](NC(=O)[C@H](Cc1ccccc1)NC(=O)[C@@H](C)NC(=O)[C@@H](N)Cc1ccc(O)cc1)C(=O)N[C@@H](Cc1ccc(O)cc1)C(=O)N1CCC[C@H]1C(=O)N[C@@H](CO)C(N)=O [Compound 49, H-Tyr-D-Ala-Phe-D-Ala-Tyr-Pro-Ser-NH2] (H-Y[dA]F[dA]YPS-NH2)
- Value of pD2 (M ± m) [1]: 7.55 ± 0.11
- EC50 ([1]; read-out: Median EC50 in M): 30 nM
